# Laboratory results from patent US12527801B2, “Cell activator of animal cell” (Vitamin C60 BioResearch Corporation, priority 2019, dated 2026).
# Test system: Normal human epidermal keratinocytes
# Assay: Microarray test of gene expression (DNA Chip Genopal)
# Type: cell-based
# Conditions: for ATP5F1 (internal standard) gene expression, Average / CDH1 (E-cadherin) gene expression, Average / CLDN1 (claudin 1) gene expression, Average / DSC1 (desmocollin 1) gene expression, Average / DSG1 (desmoglein 1) gene expression, Average / EDN1 (endothelin 1) gene expression, Average / FN1 (fibronectin) gene expression, Average / GUSB (internal standard) gene expression, Average / HAS3 (hyaluronan synthase) gene expression, Average / IVL (involucrin) gene expression, Average / KLK5 (kallikrein 5) gene expression, Average / KLK7 (kallikrein 7) gene expression, Average / KRT1 (keratin 1) gene expression, Average / KRT10 (keratin 10) gene expression, Average / PPIA (Cyclophilin) (internal standard) gene expression, Average / PTGES (prostaglandin E synthetase) gene expression, Average / PTGS2 (COX-2) (cyclooxygenase 2) gene expression, Average / RPLPO (internal standard) gene expression, Average / SPINK5 (LEKTI1) (serine protease inhibitor) gene expression, Average / SPRR1B (cornified envelope constituent protein) gene expression, Average / TGM1 (transglutaminase 1) gene expression, Average: 24 h, ratio, control as 1
# Protocol: Normal human epidermal keratinocytes were seeded on 6-well plates at the cell density of 1.5×10^5 cells/well using a HuMedia-KG2 medium. After culturing for 24 hours, the medium was replaced with 3 mL of a HuMedia-KB2 medium comprising AOH at the concentration of 0, 30, 100, and 300 μg/mL. After the replacement, culturing was performed for 24 hours, and the cells were immersed in a QIAzol reagent and lysed. RNA purified using an miRNeasy Mini Kit (QIAGEN) was recovered from the lysate, and a DNA microarray was performed using an mRNA expression analysis chip (DNA Chip Genopal (registered trademark)). The obtained results were analyzed to represent the expression of various genes as a ratio with a correction value of the control as 1, and a significant difference test was performed using the Student's t-test (significance level p of 5%).
# In Table 2, it can be determined that when the value is larger than 1, gene expression is increased, and when the p value is smaller than 0.05, there is a significant change with respect to the control (indicated by * in the table). AOH treatment varied the expression of some genes in a concentration-dependent manner.
# [1] = AOH treatment, concentration not given
smiles,measurement,setting,value
"O=c1[nH]c2nn[nH]c(=O)c2[nH]1 [AOH, 3H-imidazo[4,5-d][1,2,3]triazine-4,6(5H,7H)-dione]","ATP5F1 (internal standard) gene expression, Average",30 μg/mL,1.00
same,"CDH1 (E-cadherin) gene expression, Average",30 μg/mL,1.11
same,"CLDN1 (claudin 1) gene expression, Average",30 μg/mL,1.19
same,"DSC1 (desmocollin 1) gene expression, Average",30 μg/mL,1.26
same,"DSG1 (desmoglein 1) gene expression, Average",30 μg/mL,1.09
same,"EDN1 (endothelin 1) gene expression, Average",30 μg/mL,1.24
same,"FN1 (fibronectin) gene expression, Average",30 μg/mL,1.12
same,"GUSB (internal standard) gene expression, Average",30 μg/mL,0.97
same,"HAS3 (hyaluronan synthase) gene expression, Average",30 μg/mL,1.09
same,"IVL (involucrin) gene expression, Average",30 μg/mL,1.35
same,"KLK5 (kallikrein 5) gene expression, Average",30 μg/mL,1.11
same,"KLK7 (kallikrein 7) gene expression, Average",30 μg/mL,1.12
same,"KRT1 (keratin 1) gene expression, Average",30 μg/mL,1.46
same,"KRT10 (keratin 10) gene expression, Average",30 μg/mL,1.19
same,"PPIA (Cyclophilin) (internal standard) gene expression, Average",30 μg/mL,0.98
same,"PTGES (prostaglandin E synthetase) gene expression, Average",30 μg/mL,0.77
same,"PTGS2 (COX-2) (cyclooxygenase 2) gene expression, Average",30 μg/mL,0.90
same,"RPLPO (internal standard) gene expression, Average",30 μg/mL,1.03
same,"SPINK5 (LEKTI1) (serine protease inhibitor) gene expression, Average",30 μg/mL,1.15
same,"SPRR1B (cornified envelope constituent protein) gene expression, Average",30 μg/mL,1.27
same,"TGM1 (transglutaminase 1) gene expression, Average",30 μg/mL,1.16
same,"ATP5F1 (internal standard) gene expression, Average",100 μg/mL,1.02
same,"CDH1 (E-cadherin) gene expression, Average",100 μg/mL,1.09
same,"CLDN1 (claudin 1) gene expression, Average",100 μg/mL,1.49
same,"DSC1 (desmocollin 1) gene expression, Average",100 μg/mL,1.28
same,"DSG1 (desmoglein 1) gene expression, Average",100 μg/mL,1.13
same,"EDN1 (endothelin 1) gene expression, Average",100 μg/mL,1.39
same,"FN1 (fibronectin) gene expression, Average",100 μg/mL,1.15
same,"GUSB (internal standard) gene expression, Average",100 μg/mL,1.00
same,"HAS3 (hyaluronan synthase) gene expression, Average",100 μg/mL,1.27
same,"IVL (involucrin) gene expression, Average",100 μg/mL,1.49
same,"KLK5 (kallikrein 5) gene expression, Average",100 μg/mL,1.16
same,"KLK7 (kallikrein 7) gene expression, Average",100 μg/mL,1.24
same,"KRT1 (keratin 1) gene expression, Average",100 μg/mL,1.60
same,"KRT10 (keratin 10) gene expression, Average",100 μg/mL,1.33
same,"PPIA (Cyclophilin) (internal standard) gene expression, Average",100 μg/mL,0.96
same,"PTGES (prostaglandin E synthetase) gene expression, Average",100 μg/mL,0.79
same,"PTGS2 (COX-2) (cyclooxygenase 2) gene expression, Average",100 μg/mL,0.93
same,"RPLPO (internal standard) gene expression, Average",100 μg/mL,1.06
same,"SPINK5 (LEKTI1) (serine protease inhibitor) gene expression, Average",100 μg/mL,1.28
same,"SPRR1B (cornified envelope constituent protein) gene expression, Average",100 μg/mL,1.42
same,"TGM1 (transglutaminase 1) gene expression, Average",100 μg/mL,1.29
same,"ATP5F1 (internal standard) gene expression, Average",300 μg/mL,1.01
same,"CDH1 (E-cadherin) gene expression, Average",300 μg/mL,1.16
same,"CLDN1 (claudin 1) gene expression, Average",300 μg/mL,1.43
same,"DSC1 (desmocollin 1) gene expression, Average",300 μg/mL,1.59
same,"DSG1 (desmoglein 1) gene expression, Average",300 μg/mL,1.15
same,"EDN1 (endothelin 1) gene expression, Average",300 μg/mL,1.75
same,"FN1 (fibronectin) gene expression, Average",300 μg/mL,1.22
same,"GUSB (internal standard) gene expression, Average",300 μg/mL,0.97
same,"HAS3 (hyaluronan synthase) gene expression, Average",300 μg/mL,1.60
same,"IVL (involucrin) gene expression, Average",300 μg/mL,1.75
same,"KLK5 (kallikrein 5) gene expression, Average",300 μg/mL,1.24
same,"KLK7 (kallikrein 7) gene expression, Average",300 μg/mL,1.17
same,"KRT1 (keratin 1) gene expression, Average",300 μg/mL,2.07
same,"KRT10 (keratin 10) gene expression, Average",300 μg/mL,1.44
same,"PPIA (Cyclophilin) (internal standard) gene expression, Average",300 μg/mL,0.99
same,"PTGES (prostaglandin E synthetase) gene expression, Average",300 μg/mL,0.56
same,"PTGS2 (COX-2) (cyclooxygenase 2) gene expression, Average",300 μg/mL,0.79
same,"RPLPO (internal standard) gene expression, Average",300 μg/mL,1.08
same,"SPINK5 (LEKTI1) (serine protease inhibitor) gene expression, Average",300 μg/mL,1.38
same,"SPRR1B (cornified envelope constituent protein) gene expression, Average",300 μg/mL,1.60
same,"TGM1 (transglutaminase 1) gene expression, Average",300 μg/mL,1.57
same,"gene expression of E-cadherin (CDH1), change in words",[1],significant increase
same,"gene expression of SPRR1B, change in words",[1],significant increase
same,"gene expression of claudin 1 (CLDN1), change in words",[1],significant increase
same,"gene expression of cyclooxygenase (PTGS2), change in words",[1],significant decrease
same,"gene expression of desmocollin 1 (DSC1), change in words",[1],significant increase
same,"gene expression of desmoglein 1 (DSG1), change in words",[1],significant increase
same,"gene expression of endothelin 1 (EDN1), change in words",[1],significant increase
same,"gene expression of fibronectin (FN1), change in words",[1],slight increase
same,"gene expression of hyaluronan synthase (HAS3), change in words",[1],significant increase
same,"gene expression of involucrin (IVL), change in words",[1],significant increase
same,"gene expression of kallikrein 5 (KLK5), change in words",[1],significant increase
same,"gene expression of kallikrein 7 (KLK7), change in words",[1],significant increase
same,"gene expression of keratin 1 (KRT1), change in words",[1],significant increase
same,"gene expression of keratin 10 (KRT10), change in words",[1],significant increase
same,"gene expression of prostaglandin E synthetase (PTGES), change in words",[1],significant decrease
same,"gene expression of serine protease inhibitor (SPIMK5), change in words",[1],significant increase
same,"gene expression of transglutaminase 1 (TGM1), change in words",[1],significant increase
